The text below walks through data of PMC6222558, “Synthesis and Evolution of Berberine Derivatives as a New Class of Antiviral Agents against Enterovirus 71 through the MEK/ERK Pathway and Autophagy” (Molecules : A Journal of Synthetic Chemistry and Natural …, 2018).

The test system of data set [1] is four different genotype enterovirus 71 (EV71) strains. Nature of the data set: CPE assay, summary over the four EV71 strains. In kind it is cell-based. The note with it: Enterovirus A, EV71, read-out: IC50 (Figure 1). As to the method:
(§1) Thus, all newly synthesized BBR analogues were screened for their anti-EV71 potencies in African green monkey kidney (Vero) cells taking BBR as the positive control. EV71 strains used in the present study include different genotype strains, such as H strain (VR-1432, genotype C2), BrCr strain (VR-1775, genotype A), and JS-52 and SHZH98 (genotype C4). The potency against EV71 strains above mentioned of each tested compound was evaluated by the combination of its IC50 and selectivity index (SI) value as the important therapeutic indication.
(§2) The anti-EV71 activities of all tested compounds were detected by the virus-induced CPE assay. Briefly, cells (3 × 10^4 cells/well) were plated into 96-well culture plates and incubated for 16 h. Then, remove the medium and infected cells with EV71 of 100 × TCID50 (50% tissue culture infective doses) in serum-free medium for 1 h at 37 °C. After that, the unbound viruses were removed and various concentrations of tested compounds were supplemented for incubation of another 72 h. […] TC50 defined as the concentration that leads to the 50% of CPE which determined by the same method in 72 h. In addition, the cells were stained the cells were colored with 0.5% crystal violet in 20% ethanol for 15 min at room temperature and the cells were imaged after rinsed with PBS.

Data set [2] relates to EV71 H strain (VR-1432, genotype C2). Nature of the data set: CPE inhibition assay for anti-EV71, H strain. In kind it is cell-based, enterovirus 71 (EV71). The note with it: Enterovirus A, EV71; Vero cells; CPE; calculated on the organic part; n = 3; read-out: H Strain IC50. Here is the method: as §1
(§3) Vero cells were purchased from the American Type Culture Collection (ATCC, […], MD, USA), and were cultured in Minimum Essential Medium (MEM) supplemented with 10% fetal bovine serum (FBS) (GIBCO, Grand Island, NY, USA) and antibiotics (100 U/mL penicillin and […] streptomycin) at 37 °C in a 5% CO2 incubator. EV71 strain SHZH98 isolated from the throat swab sample of an HFMD case occurring in 1998 in China was kindly provided by Dr. Qi Jin (Institute of Pathogen Biology, Chinese Academy of Medical Science and Peking Union Medical School, Beijing, China), and JS-52 strain was a kind gift from Dr. Xiangzhong Ye (Beijing Wantai Biological Pharmacy Enterprise Co., Ltd., Beijing, China). The EV71 BrCr and H strains were purchased from the ATCC. All of EV71 strains were passaged in Vero cells.
as §2

Data set [3] has as its system EV71 JS-52 strain (genotype C4). In words: CPE inhibition assay for anti-EV71, JS-52 strain. In kind it is cell-based, enterovirus 71 (EV71). To be noted: Enterovirus A, EV71; Vero cells; CPE; calculated on the organic part; n = 3; read-out: JS-52 Strain IC50. As to the method:
as §1, §3, §2

A further data set deals with Vero cells. In words: Cytotoxicity assay (CCK) in Vero cells. To be noted: Vero cells; calculated on the organic part; n = 3. In kind it is cell-based, African green monkey. As to the method:
as §3
Cytotoxicity of all target compounds in Vero cells was analyzed by CCK (TransGen Biotech, Beijing, China) assay. In brief, cells in exponential phase (3 × 10^4 cells/well) were seeded into 96-well culture plates and incubated overnight. Then, the medium was removed and different concentrations of all target compounds were applied in duple. After 48 h incubation, the cytotoxicity of all target compounds was determined by CCK assay. The signals were read at 450 nm on Enspire (Perkin Elmer, Waltham, MA, USA). The TC50 was defined as the concentration that inhibits 50% cellular growth in comparison with the controls. It is calculated by the Reed and Muench method.

The subject of data set [4] is EV71 SHZH98 strain (genotype C4). In words: CPE inhibition assay for anti-EV71, SHZH98 strain. In kind it is cell-based, enterovirus 71 (EV71). To be noted: Enterovirus A, EV71; Vero cells; CPE; calculated on the organic part; n = 3; read-out: SHZH98 Strain IC50. As to the method: as §1, §3, §2
Data set [5] has as its system MEK/ERK signaling pathway. The arrangement: method as in PMID 28081706. To be noted: cited from earlier work.
The subject of data set [6] is EV71 BrCr strain (VR-1775, genotype A). In words: CPE inhibition assay for anti-EV71, BrCr strain. In kind it is cell-based, enterovirus 71 (EV71). The note with it: Enterovirus A, EV71; Vero cells; CPE; calculated on the organic part; n = 3; read-out: BrCr Strain IC50. As to the method:
as §1, §3, §2

Counter-ions that a name gives are not always drawn.

As a reminder, the IC50 is the point on the concentration scale where inhibition reaches its midpoint. In general, melting point refers to the temperature, or range, at which the solid turns liquid.

`COc1ccc2cc3[n+](cc2c1OC)CCc1cc2c(cc1-3)OCO2` [BBR, berberine]: the IC50 in data set [1] was 8.55 to 25.5 µM; in data set [2], 21.2 µM; in data set [3], 14 µM; in data set [4], 28.2 µM; in data set [6], 9.45 µM. Further, in the data set on Vero cells, the “TC50 (median toxic concentration)” value is 147 µM. Also, the “phosphorylation of MEK/ERK induced by EV71 infection” value in data set [5] is listed as “could inhibit the phosphorylation of MEK/ERK”.

The molecule `CCOC(=O)COc1cc2c(cc1OC)-c1cc3ccc(OC)c(OC)c3c[n+]1CC2` (as salt: chloride) [5a, 2,9,10-Trimethoxy-3-ethyloxyformylmethylenoxy protoberberine chloride] came in with a melting point of 234 to 236 °C.

The molecule `CCOC(=O)COc1c(OC)ccc2cc3[n+](cc12)CCc1cc(OC)c(OC)cc1-3` (as salt: chloride) [4a, 2,3,10-Trimethoxy-9-ethyloxyformylmethylenoxy protoberberine chloride] yielded a melting point of 204 to 206 °C.

On to `COc1cccc(C(=O)COc2c(OC)ccc3cc4[n+](cc23)CCc2cc(OC)c(OC)cc2-4)c1` (as salt: chloride) [4e, 2,3,10-Trimethoxy-9-m-methoxyphenylformylmethylenoxy protoberberine chloride], for which the melting point was in the range of 200 to 202 °C.

In turn, `COc1cc2c(cc1OC(=O)OCc1ccccc1)CC[n+]1cc3c(OC)c(OC)ccc3cc1-2` (as salt: chloride) [5g, 2,9,10-Trimethoxy-3-benzyloxyformyloxy protoberberine chloride] came in with a melting point of 140 to 142 °C.

`COc1cc2c(cc1OC)-c1cc3ccc(OC)c(OCC(=O)C(C)(C)C)c3c[n+]1CC2` (as salt: chloride) [4b, 2,3,10-Trimethoxy-9-pivalylmethylenoxy protoberberine chloride] displayed a melting point of 227 to 229 °C.

`COc1ccc2cc3[n+](cc2c1OC(=O)OCc1ccccc1)CCc1cc2c(cc1-3)OCO2` (as salt: chloride) [2h, 2,3-Methylenedioxy-9-benzyloxyformyloxy-10-methoxy protoberberine chloride] yielded a melting point of 195 to 197 °C.

In the case of `COc1cc2c(cc1OCC(=O)OCc1ccccc1)CC[n+]1cc3c(OC)c(OC)ccc3cc1-2` (as salt: chloride) [5c, 2,9,10-Trimethoxy-3-benzyloxyformylmethylenoxy protoberberine chloride], the melting point fell in the range of 217 to 219 °C.

In the case of `COc1cc2c(cc1OCC(=O)c1ccc(C(F)(F)F)cc1)CC[n+]1cc3c(OC)c(OC)ccc3cc1-2` (as salt: chloride) [5f, 2,9,10-Trimethoxy-3-p-trifloromethylphenylformylmethylenoxy protober berine chloride], the melting point was in the range of 213 to 215 °C.

`COc1ccc2cc3[n+](cc2c1OCC(=O)c1ccc(C(F)(F)F)cc1)CCc1cc2c(cc1-3)OCO2` (as salt: chloride) [2g, 2,3-Methylenedioxy-9-p-trifloromethylphenylformylmethylenoxy-10-methoxy protoberberine chloride] yielded a melting point of 238 to 240 °C.
